Assay [1] has as its system bone marrow-derived MDSCs. The following applies: co-culture without drug.
Assay [2] deals with AOM/DSS-induced colon tumorigenesis. The experiment in a line: AOM/DSS chronic inflammation-driven colon cancer mouse model. As to conditions: AOM/DSS-treated WT mice; for colon tumor burden: vs vehicle. The assay is classed as in vivo. On the procedure:
The drug was administered twice weekly for the duration of the protocol. […] As stated above, the AOM/DSS colon cancer model is driven primarily by chronic inflammation; thus, we next assessed mice sera for inflammatory factors TNF-α, IL-6, and MCP-1, which are highly relevant to human colon carcinogenesis.
(§1) Tumor models, assessment of tumor burden and adoptive transfer—For the azoxymethane/Dextran Sulfate Sodium (AOM/DSS)-induced tumorigenesis model, six to eight weeks old WT, PARP-1^+/− or PARP-1^−/− mice received a single dose (10 mg/kg) of AOM, i.p., followed by 4 cycles of 1.25% DSS provided in drinking water. Each cycle consisted of a week of DSS water separated by 2 weeks of regular water. […] At week 22 after the start of the experimental protocol, mice were sacrificed by CO2 asphyxiation. Colons, spleens, and blood were collected for analysis. Colons were opened longitudinally and washed with PBS to assess the tumor burdens using a dissecting microscope. For the APC^Min-mediated model, APC^Min/+, APC^Min/+PARP-1^+/−, or APC^Min/+PARP-1^−/− male mice were sacrificed at 16 weeks of age. […] Sacrificed mice were processed as described above except that the tumor burden was assessed along the whole intestinal track. Tumors were counted and divided in groups lower than 2 mm, 2-4 mm, and tumors bigger than 4 mm in diameter.
Tissue processing, immunohistochemistry, immunofluorescence and cytokines measurement—Some tissues were fixed in buffered formalin (10%), paraffin-embedded, then sectioned. Serial sections were subjected to H&E staining, immunohistochemistry (IHC) or immunofluorescence, as described (33), with antibodies to PCNA (Novusbio, Littleton, CO), COX-2 (Santa Cruz Biotechnology, Santa Cruz, CA), ICAM-1 (Santa Cruz Biotechnology), CD8 (Santa Cruz Biotechnology), or Gr1 (eBioscience, San Diego, USA) as previously described (34). […] Cytokine levels were assessed for TNF-α (ELM-TNFα-1), IL-6 (ELM-IL-6-1), and MCP-1 (ELM-MCP1) by ELISA (all from RayBiotech, Norcross, GA) according to the manufacturer's instructions and recommendations.

For another assay, the system named is MC-38 cell-based tumors. Briefly: MC-38 cell-based syngeneic colon cancer mouse model. The assay is classed as in vivo. An excerpt:
Mice that received vehicle increased in size in a time-dependent manner and were sacrificed at day 16.
For the syngeneic tumor models, six to eight weeks old WT, PARP-1^+/−, or PARP-1^−/− mice were subcutaneously inoculated with 2.5×10^5 MC-38 cells. In some experiments, MC-38 cells transfected with p193-PGK-SB100X and pKT2PGK-BsdGFP_CLP-Luc plasmids (flanked by Sleeping Beauty transposons) and sorted by FACS. Selected cells were then engrafted onto mice as described above. When tumors became palpable (at day 4-6), WT mice were randomized and assigned to the different experimental groups. […] Tumor volumes were measured with a digital caliper or assessed using GFP/Luc-Biophotonic Imaging (Xenogen IVIS200, PerkinElmer, Boston, MA). Tumors were measured by the greatest longitudinal diameter (length) and the greatest transverse diameter (width) using a digital caliper. Tumor volumes were calculated using the following formula: tumor volume=(length×width^2)/2. For luciferase imaging, tumor-bearing mice received 150 mg/kg of D-luciferin potassium salt solution (PerkinElmer, Boston, MA) i.p. five minutes prior to anesthetic induction and imaging. Bioluminescence within a predetermined region of interest (ROI) on each mouse was quantified in photons/sec/cm^2/sr. At the end of the protocol (day 20-24), mice were sacrificed and tumors were harvested for further processing and analysis. For the adoptive transfer experiments, 3×10^6 BM-MDSCs derived from WT mice or vehicle were injected, intratumorally, into WT or PARP-1^+/− mice. The MDSCs were delivered at five injection sites at days 8 and 16 following engraftment of MC-38 cells.
(§2) Tissue processing, immunohistochemistry, immunofluorescence and cytokines measurement—Some tissues were fixed in buffered formalin (10%), paraffin-embedded, then sectioned. Serial sections were subjected to H&E staining, immunohistochemistry (IHC) or immunofluorescence, as described (33), with antibodies to PCNA (Novusbio, Littleton, CO), COX-2 (Santa Cruz Biotechnology, Santa Cruz, CA), ICAM-1 (Santa Cruz Biotechnology), CD8 (Santa Cruz Biotechnology), or Gr1 (eBioscience, San Diego, USA) as previously described (34). Some of the sections were subjected to immunofluorescence with antibodies to CD8 or Gr1. Blood, collected by cardiac puncture, was run through a Microtainer Serum Separator tube (BD, Franklin Lake, NJ). The collected sera were immediately stored at −80° C. for future use and analysis. Cytokine levels were assessed for TNF-α (ELM-TNFα-1), IL-6 (ELM-IL-6-1), and MCP-1 (ELM-MCP1) by ELISA (all from RayBiotech, Norcross, GA) according to the manufacturer's instructions and recommendations.

The subject of assay [3] is APC^Min-induced tumor burden. The experiment in a line: APC^Min/+ spontaneous intestinal tumorigenesis mouse model. The following applies: APC^Min/+ mice; for intestinal tumor burden: assessed at 16 weeks of age. In kind it is in vivo.
Text: If chronic inflammation is the sole mechanism by which PARP-1 participates in colon tumorigenesis, then the ability to severely block inflammation upon inhibition of the enzyme, pharmacologically or genetically, should almost entirely alleviate the tumor burden. According to the above data, however, this is not the case. […] In general, APC^Min/+ mice have a rather short lifespan and often die not only as a result of tumor burden but also due to development of severe anemia, substantial cachexia, and/or intestinal intussusceptions. To this end, C57BL/6 PARP-1^+/− and PARP-1^−/− mice were generated in the APC^Min/+ background (FIG. 39). PARP-1 heterozygosity provided remarkable protection against tumor development (FIG. 33A). […] Conversely, PARP-1 knockout promoted an increase in the number of small tumors.
as §1, §2

The test system of the next assay is perforin. Briefly: Perforin immunoblot in CD3/CD28-stimulated spleen CD3+ T cells. In kind it is cell-based. As to conditions: 3 days. On the procedure: CD3^+ T cells were isolated from spleen then stimulated with antibodies to CD3 and CD28 for 3 days. Protein extracts were analyzed by immunoblotting with antibodies to perforin (a marker of T cell function) or GAPDH. Note that the 4 nM concentration increased, while the 1 mM decreased, perforin levels.

Entries after “also recorded” stand apart in the source; their conditions may differ. Read-outs that look alike come from different tables or passages of the source.

Turning to `O=C(c1cc(Cc2n[nH]c(=O)c3ccccc23)ccc1F)N1CCN(C(=O)C2CC2)CC1` [olaparib], the results for the “suppressive activity of MDSCs on T-cell proliferation” value in assay [1] (4 nM), in assay [1] (high concentration 5 μM) and in assay [1] (moderate concentration 0.1 μM) were “significantly reduced”, “blocked the function of MDSCs completely” and “blocked the function of MDSCs completely”, respectively. The colon tumor burden entry in assay [2] (5 mg/kg i.p. twice weekly) and in assay [2] (25 mg/kg i.p. twice weekly) was “significantly reduced the tumor burden” in each case. Further, the “colitis (colonic mucosa, H&E)” value in assay [2] (5 or 25 mg/kg) is reported as “notable protection”. The tumor size entry is given as “barely increased above the size the tumors at the day 5; also recorded: more effective at reducing the tumor burden” in the assay on MC-38 cell-based tumors (0.2 mg/kg, WT mice, from palpable tumors); “very effective at blocking tumor growth” in the assay with MC-38 cell-based tumors (1 mg/kg, WT mice, from palpable tumors (day 6)); “relatively smaller than those of WT; also recorded: significant reduction in the size of MC-38 cell-based tumors” in the assay with MC-38 cell-based tumors (5 mg/kg, WT mice, from palpable tumors). Also, the “tumor progression (tumor volume)” value in the assay with MC-38 cell-based tumors (WT mice, olaparib 0.2 mg/kg on alternate days, anti-PD-1 100 μg/mouse every 4 days, alone or combined) is “significantly reduced the progression of MC-38 tumors”. The “intratumoral ICAM-1 immunoreactivity as a surrogate for inflammation” value with MC-38 cell-based tumors (both doses (0.2 and 5 mg/kg)) is listed as “reduction in inflammation”. Further, the “systemic inflammation (TNF-α, IL-6 and MCP-1 in sera)” value with MC-38 cell-based tumors (both doses (0.2 and 5 mg/kg)) is given as “moderately reduced”. For the same compound, the intestinal tumor burden entry in assay [3] (5 mg/kg i.p. twice a week) was “good protection against the tumor burden; also recorded: good protection against tumor development”; in assay [3] (5 mg/kg i.p. twice a week, listed as Olaparib), “reduces the tumor burden”; in assay [3] (25 mg/kg i.p. twice a week) it was “no protection against the burden; also recorded: no significant protection”. Further, in assay [3], the systemic inflammation result was “effective at blocking systemic inflammation”. Besides, the “cachexia (body weight)” value in assay [3] (high dose (25 mg/kg)) is “did not”; in assay [3] (moderate dose (5 mg/kg)), “protected against cachexia”. The results for the “perforin levels (marker of T cell function)” value in the assay with perforin (4 nM) and in the assay with perforin were “increased” and “decreased”, respectively.
